Data taken from patent US11560372B2, “Heterocyclic compounds useful as modulators of acetylcholine receptors” (TAKEDA PHARMACEUTICAL COMPANY LIMITED, priority 2017, dated 2023).

Target: T1, MDR1 (Homo sapiens, UniProt P08183)
T1 construct: expressed in transfected cells
Test: MDR1 membrane permeability test
Format: in vitro ADME
Conditions: pH 7.4, efflux ratio (ER), Papp B to A / A to B, human MDR1-expressing LLC-PK1 cells, read-out: MDR1 substrate screening 1 μM (MDRSUB1)/Ratio (NUMBER)
Method: MDR1 Membrane Permeability Test
When MDR1 is expressed in excess in LLC-PK1 cell, which is a polar cell, MDR1 is localized in apical membrane (A), thus promoting transcellular transport from the basement membrane side (B) toward direction A. When a ratio to the transcellular transport in the opposite direction is taken and a ratio to a control cell in which a mock vector has been introduced is further taken, an efflux ratio of MDR1 to simple diffusion (corrected efflux ratio) is calculated. Similarly, when a brain/plasma concentration ratio in Mdr1(−/−) mouse is divided by a brain/plasma concentration ratio in wild-type mouse, an efflux ratio of Mdr1 to simple diffusion in BBB (Kp, brain ratio, higher value means lower central nervous system permeability) is calculated. Adachi Y. et al. (Reference 1) has reported a positive correlation between corrected efflux ratio and Kp, brain ratio (FIG. 5(C)), and efflux ratio in MDR1 expressing cell and Kp, brain ratio (FIG. 5(B)).
To confirm the central nervous system permeability of the compounds of the present invention, a MDR1 membrane permeability test was performed by the following method.
Human MDR1-expressing LLC-PK1 cells were cultured according to the report of Takeuchi et al. (Reference 2). Human MDR1-expressing LLC-PK1 cells were cultured in 10% fetal bovine serum (Invitrogen), 500 μg/ml G418 (Invitrogen), 150 ng/ml colchicine-containing M199 medium (Invitrogen) under 5% CO2 conditions at 37° C.
Transcellular transport was performed according to the report of Sugimoto et al. (Reference 3). The cells were cultured for 3 days on HTS Transwell (registered trademark) 96 well permeable support (pore size 0.4 μm, 0.143 cm^2 surface area, Corning Life Sciences) having polyethylene terephthalate membrane on which the cells had been seeded at 3.45×10^4 cells/well. After preincubation in M199 medium (containing 10 mmol/L HEPES, 1% BSA, pH 7.4) for 30 min, a drug solution (10 μmol/L digoxin, 200 μmol/L LY, […]) dissolved in M199 medium was added to the apical side or basolateral side of the Transwell by 75 or 250 μL each and the cells were cultured under 5% CO2 conditions at 37° C. After 1 hr, the sample was collected from the side opposite to the side where the drug solution was added, and the concentration of the test compound was measured by LC-MS/MS. As an internal standard substance, 100 ng/mL alprenolol and diclofenac were used. The analysis conditions were as follows.
Papp, A to B and Papp, B to A (apparent permeability) were calculated from the formula (1), and the efflux ratio (ER) was calculated from the formula (2).

T1 sequence (P08183 whole entry): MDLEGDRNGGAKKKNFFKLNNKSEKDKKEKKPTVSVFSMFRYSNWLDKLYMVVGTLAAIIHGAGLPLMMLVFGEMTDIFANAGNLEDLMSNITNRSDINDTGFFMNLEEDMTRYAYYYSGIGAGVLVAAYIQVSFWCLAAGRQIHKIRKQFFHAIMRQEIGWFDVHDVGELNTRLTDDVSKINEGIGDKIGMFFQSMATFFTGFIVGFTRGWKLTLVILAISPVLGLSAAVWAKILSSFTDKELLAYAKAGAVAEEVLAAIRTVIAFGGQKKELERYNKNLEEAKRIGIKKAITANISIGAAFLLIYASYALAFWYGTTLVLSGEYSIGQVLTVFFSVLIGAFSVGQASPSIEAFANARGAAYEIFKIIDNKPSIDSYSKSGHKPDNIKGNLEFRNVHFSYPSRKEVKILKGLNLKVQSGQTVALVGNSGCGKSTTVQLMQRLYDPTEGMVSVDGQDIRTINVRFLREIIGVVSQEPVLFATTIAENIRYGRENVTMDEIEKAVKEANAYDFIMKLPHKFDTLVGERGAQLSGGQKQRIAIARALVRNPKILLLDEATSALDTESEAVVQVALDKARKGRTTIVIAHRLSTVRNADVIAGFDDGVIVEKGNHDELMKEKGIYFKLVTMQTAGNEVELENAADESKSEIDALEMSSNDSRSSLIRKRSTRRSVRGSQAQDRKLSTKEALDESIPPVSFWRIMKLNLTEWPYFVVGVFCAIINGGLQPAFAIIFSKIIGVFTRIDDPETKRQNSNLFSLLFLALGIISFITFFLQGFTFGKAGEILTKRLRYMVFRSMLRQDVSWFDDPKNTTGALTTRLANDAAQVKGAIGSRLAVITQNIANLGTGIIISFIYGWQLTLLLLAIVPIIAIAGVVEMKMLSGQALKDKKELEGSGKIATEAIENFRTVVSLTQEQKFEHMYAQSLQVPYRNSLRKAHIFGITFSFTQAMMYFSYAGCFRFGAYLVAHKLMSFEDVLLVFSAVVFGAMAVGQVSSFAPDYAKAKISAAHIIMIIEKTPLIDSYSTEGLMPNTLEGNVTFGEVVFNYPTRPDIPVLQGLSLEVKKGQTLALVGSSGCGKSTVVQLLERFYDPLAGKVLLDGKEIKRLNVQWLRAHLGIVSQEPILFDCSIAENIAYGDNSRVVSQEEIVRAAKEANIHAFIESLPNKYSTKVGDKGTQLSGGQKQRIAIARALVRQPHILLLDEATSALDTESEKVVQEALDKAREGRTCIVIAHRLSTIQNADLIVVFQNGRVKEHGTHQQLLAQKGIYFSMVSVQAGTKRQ

Structure (SMILES)	efflux ratio at 1 hr, 1 μM
CNC(=O)c1ccc(Cc2cc3c(=O)n([C@H]4CCOC[C@@H]4O)nnc3c(C)c2C)cc1F [Example 55, 1,5-anhydro-2,3-dideoxy-3-(6-(3-fluoro-4-(methylcarbamoyl)benzyl)-7,8-dimethyl-4-oxo-1,2,3-benzotriazin-3 (4H)-yl)-L-threo-pentitol]	3.2
Cc1c(Cc2ccc(-c3cn(C)nn3)cc2)cc2c(=O)n([C@H]3CCOC[C@@H]3O)nnc2c1Cl [Example 20, 1,5-anhydro-3-(8-chloro-7-methyl-6-(4-(1-methyl-1H-1,2,3-triazol-4-yl)benzyl)-4-oxo-1,2,3-benzotriazin-3(4H)-yl)-2,3-dideoxy-L-threo-pentitol]	2.9
Cc1c(Cc2ccc(C(=O)N3CC(O)C3)cc2)cc2c(=O)n([C@H]3CCOC[C@@H]3O)cnc2c1C [Example 40, 1,5-anhydro-2,3-dideoxy-3-(6-(4-((3-hydroxyazetidin-1-yl)carbonyl)benzyl)-7,8-dimethyl-4-oxoquinazolin-3 (4H)-yl)-L-threo-pentitol]	12
Cc1c(Cc2ccc(C(=O)NC(C)(C)CO)cc2)cc2c(=O)n([C@H]3CCOC[C@@H]3O)cnc2c1C [Example 48, 1,5-anhydro-2,3-dideoxy-3-(6-(4-((1-hydroxy-2-methylpropan-2-yl)carbamoyl)benzyl)-7,8-dimethyl-4-oxoquinazolin-3 (4H)-yl)-L-threo-pentitol]	24
Cc1c(Cc2ccc(C(=O)NCCC(F)(F)F)cc2)cc2c(=O)n([C@H]3CCOC[C@@H]3O)cnc2c1C [Example 53, 1,5-anhydro-2,3-dideoxy-3-(7,8-dimethyl-4-oxo-6-(4-((3,3,3-trifluoropropyl)carbamoyl)-benzyl)quinazolin-3 (4H)-yl)-L-threo-pentitol]	8.3
Cc1c(Cc2ccc(C(=O)N[C@H]3CCOC[C@@H]3O)c(F)c2)cc2c(=O)n([C@H]3CCOC[C@@H]3O)cnc2c1C [Example 88, 2-fluoro-N-((3R,4S)-3-hydroxytetrahydro-2H-pyran-4-yl)-4-((3-((3R,4S)-3-hydroxytetrahydro-2H-pyran-4-yl)-7,8-dimethyl-4-oxo-3,4-dihydroquinazolin-6-yl)methyl)benzamide]	16
Cc1c(Cc2ccc(C(=O)NC3(C#N)CC3)c(F)c2)cc2c(=O)n([C@H]3CCOC[C@@H]3O)cnc2c1C [Example 89, 1,5-anhydro-3-(6-(4-((1-cyanocyclopropyl)carbamoyl)-3-fluorobenzyl)-7,8-dimethyl-4-oxoquinazolin-3 (4H)-yl)-2,3-dideoxy-L-threo-pentitol]	16
CNC(=O)c1ccc(Cc2cc3c(=O)n([C@H]4CCOC[C@@H]4O)nnc3c(C)c2C)cn1 [Example 91, 1,5-anhydro-2,3-dideoxy-3-(7,8-dimethyl-6-((6-(methylcarbamoyl)pyridin-3-yl)methyl)-4-oxo-1,2,3-benzotriazin-3 (4H)-yl)-L-threo-pentitol]	5.9
CNC(=O)c1ccc(Cc2cc3c(=O)n([C@H]4CCOC[C@@H]4O)cnc3cc2OC)cc1F [Example 57, 1,5-anhydro-2,3-dideoxy-3-(6-(3-fluoro-4-(methylcarbamoyl)benzyl)-7-methoxy-4-oxoquinazolin-3 (4H)-yl)-L-threo-pentitol]	16
Cc1nn(C)cc1-c1ccc(Cc2cc3c(=O)n([C@H]4CCOC[C@@H]4O)cnc3c(F)c2C)cn1 [Example 23, 1,5-anhydro-2,3-dideoxy-3-(6-((6-(1,3-dimethyl-1H-pyrazol-4-yl)pyridin-3-yl)methyl)-8-fluoro-7-methyl-4-oxoquinazolin-3(4H)-yl)-L-threo-pentitol]	19
Cc1c(Cc2ccc(C(=O)NCCN3CCOCC3)cc2)cc2c(=O)n([C@H]3CCOC[C@@H]3O)cnc2c1C [Example 47, 1,5-anhydro-2,3-dideoxy-3-(7,8-dimethyl-6-(4-((2-(morpholin-4-yl)ethyl)carbamoyl)benzyl)-4-oxoquinazolin-3 (4H)-yl)-L-threo-pentitol]	24
Cc1c(Cc2ccc(C(=O)NC34CC(C3)C4)cc2)cc2c(=O)n([C@H]3CCOC[C@@H]3O)cnc2c1C [Example 42, 1,5-anhydro-3-(6-(4-(bicyclo[1.1.1]penta-1-ylcarbamoyl)benzyl)-7,8-dimethyl-4-oxoquinazolin-3 (4H)-yl)-2,3-dideoxy-L-threo-pentitol]	5.9
COc1cc2ncn([C@H]3CCOC[C@@H]3O)c(=O)c2cc1Cc1ccc(-c2ccn(C)n2)nc1 [Example 63, 1,5-anhydro-2,3-dideoxy-3-(7-methoxy-6-((6-(1-methyl-1H-pyrazol-3-yl)pyridin-3-yl)methyl)-4-oxoquinazolin-3 (4H)-yl)-L-threo-pentitol]	35
Cc1c(Cc2ccc(C(=O)NC(C)C)cc2)cc2c(=O)n([C@H]3CCOC[C@@H]3O)cnc2c1C [Example 36, 1,5-anhydro-2,3-dideoxy-3-(6-(4-(isopropylcarbamoyl)benzyl)-7,8-dimethyl-4-oxoquinazolin-3 (4H)-yl)-L-threo-pentitol]	11
Cc1c(Cc2ccc(C(=O)NCCN3CCCC3)c(F)c2)cc2c(=O)n([C@H]3CCOC[C@@H]3O)cnc2c1C [Example 78, 1,5-anhydro-2,3-dideoxy-3-(6-(3-fluoro-4-((2-(pyrrolidin-1-yl)ethyl)carbamoyl)benzyl)-7,8-dimethyl-4-oxoquinazolin-3 (4H)-yl)-L-threo-pentitol]	56
Cc1c(Cc2ccc(C(=O)NC3CCOCC3)cc2)cc2c(=O)n([C@H]3CCOC[C@@H]3O)cnc2c1C [Example 32, 1,5-anhydro-2,3-dideoxy-3-(7,8-dimethyl-4-oxo-6-(4-(tetrahydro-2H-pyran-4-ylcarbamoyl)benzyl)quinazolin-3 (4H)-yl)-L-threo-pentitol]	26
Cc1c(Cc2ccc(C(=O)NCCF)cc2)cc2c(=O)n([C@H]3CCOC[C@@H]3O)cnc2c1C [Example 37, 1,5-anhydro-2,3-dideoxy-3-(6-(4-((2-fluoroethyl)carbamoyl)benzyl)-7,8-dimethyl-4-oxoquinazolin-3 (4H)-yl)-L-threo-pentitol]	12
Cc1c(Cc2ccc(-c3cn(C)nn3)cc2)cc2c(=O)n([C@H]3CCOC[C@@H]3O)cnc2c1Cl [Example 15, 1,5-anhydro-3-(8-chloro-7-methyl-6-(4-(1-methyl-1H-1,2,3-triazol-4-yl)benzyl)-4-oxoquinazolin-3(4H)-yl)-2,3-dideoxy-L-threo-pentitol]	9.7
Cc1c(Cc2ccc(-c3cnn(CC(F)(F)F)c3)nc2)cc2c(=O)n([C@H]3CCOC[C@@H]3O)cnc2c1C [Example 74, 1,5-anhydro-2,3-dideoxy-3-(7,8-dimethyl-4-oxo-6-((6-(1-(2,2,2-trifluoroethyl)-1H-pyrazol-4-yl)pyridin-3-yl)methyl)quinazolin-3(4H)-yl)-L-threo-pentitol]	7.1
Cc1c(Cc2ccc(C(=O)NCCF)c(F)c2)cc2c(=O)n([C@H]3CCOC[C@@H]3O)cnc2c1C [Example 67, 1,5-anhydro-2,3-dideoxy-3-(6-(3-fluoro-4-((2-fluoroethyl)carbamoyl)benzyl)-7,8-dimethyl-4-oxoquinazolin-3 (4H)-yl)-L-threo-pentitol]	5.3
COCCCNC(=O)c1ccc(Cc2cc3c(=O)n([C@H]4CCOC[C@@H]4O)cnc3c(C)c2C)cc1 [Example 38, 1,5-anhydro-2,3-dideoxy-3-(6-(4-((3-methoxypropyl)carbamoyl)benzyl)-7,8-dimethyl-4-oxoquinazolin-3 (4H)-yl)-L-threo-pentitol]	15
Cc1ccc(Cc2cc3c(=O)n([C@H]4CCOC[C@@H]4O)cnc3c(C)c2C)cn1 [Example 7, 1,5-anhydro-2,3-dideoxy-3-(7,8-dimethyl-6-((6-methylpyridin-3-yl)methyl)-4-oxoquinazolin-3(4H)-yl)-L-threo-pentitol]	3.5
Cc1c(Cc2ccc(C(=O)NC3CC3)cc2)cc2c(=O)n([C@H]3CCOC[C@@H]3O)cnc2c1C [Example 44, 1,5-anhydro-3-(6-(4-(cyclopropylcarbamoyl)benzyl)-7,8-dimethyl-4-oxoquinazolin-3 (4H)-yl)-2,3-dideoxy-L-threo pentitol]	22
